The values that follow come from ChEMBL document CHEMBL3351363 (J Med Chem, 2014).

Experiment [1] concerns the target T1, Muscarinic acetylcholine receptor M4 (Homo sapiens) (UniProt P08173).
T1 sequence (whole entry): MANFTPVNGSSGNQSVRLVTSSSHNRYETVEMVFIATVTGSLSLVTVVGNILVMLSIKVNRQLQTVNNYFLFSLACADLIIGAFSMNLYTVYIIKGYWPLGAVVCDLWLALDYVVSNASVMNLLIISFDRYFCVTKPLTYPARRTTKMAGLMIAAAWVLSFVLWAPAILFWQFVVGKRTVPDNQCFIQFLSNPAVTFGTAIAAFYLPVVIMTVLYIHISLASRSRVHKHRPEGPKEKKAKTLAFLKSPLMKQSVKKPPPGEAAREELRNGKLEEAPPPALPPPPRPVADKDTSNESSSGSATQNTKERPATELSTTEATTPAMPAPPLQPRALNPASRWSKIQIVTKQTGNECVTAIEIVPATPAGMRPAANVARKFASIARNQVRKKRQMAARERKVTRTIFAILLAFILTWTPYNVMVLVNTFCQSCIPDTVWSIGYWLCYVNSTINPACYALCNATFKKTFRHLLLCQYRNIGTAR
Nature of the experiment: Antagonist activity at human M4 receptor expressed in HEK293T cells assessed as inhibition of carbachol-induced response by BRET based Gi protein activation assay relative to untreated control. To be noted: HEK-293T.

Experiment [2] concerns the target T2, Muscarinic acetylcholine receptor M1 (Homo sapiens, UniProt P11229).
T2 sequence (P11229 whole entry): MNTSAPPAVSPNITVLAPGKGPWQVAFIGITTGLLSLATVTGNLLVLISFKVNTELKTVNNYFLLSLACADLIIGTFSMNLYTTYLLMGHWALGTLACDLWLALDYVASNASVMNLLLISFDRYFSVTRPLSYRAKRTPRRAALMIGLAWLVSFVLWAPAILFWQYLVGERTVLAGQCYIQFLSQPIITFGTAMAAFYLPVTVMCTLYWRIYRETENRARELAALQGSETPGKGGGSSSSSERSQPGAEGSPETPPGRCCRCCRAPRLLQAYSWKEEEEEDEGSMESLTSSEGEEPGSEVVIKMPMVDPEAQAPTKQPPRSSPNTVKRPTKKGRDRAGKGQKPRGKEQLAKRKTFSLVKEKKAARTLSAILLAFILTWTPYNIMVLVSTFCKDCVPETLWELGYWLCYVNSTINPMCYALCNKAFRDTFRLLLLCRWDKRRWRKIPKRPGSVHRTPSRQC
In words: Agonist activity at human M1 receptor expressed in HEK293T cells by BRET based Gq protein engagement assay. (In general: Bioluminescence resonance energy transfer reports proximity on the nanometre scale.)

The target of experiment [3] is T1, Muscarinic acetylcholine receptor M4 (Homo sapiens). In words: Antagonist activity at human M4 receptor expressed in HEK293T cells assessed as inhibition of carbachol-induced response by beta-arrestin engagement assay relative to untreated control. Particulars: HEK-293T. In kind it is cell-based.
Experiment [4] has the same target. In words: Antagonist activity at human M4 receptor expressed in HEK293T cells assessed as inhibition of xanomeline-induced response by BRET based Gq protein engagement assay relative to untreated control. In kind it is cell-based. To be noted: HEK-293T.
Experiment [5] has as its target T2, Muscarinic acetylcholine receptor M1.
Experiment [6] has the same target. This is another data set of the same source.
The target of experiment [7] is T1, Muscarinic acetylcholine receptor M4 (Homo sapiens). Nature of the experiment: Antagonist activity at human M4 receptor expressed in HEK293T cells assessed as inhibition of carbachol-induced response by BRET based Gq protein engagement assay relative to untreated control. In kind it is cell-based. To be noted: HEK-293T.
Experiment [8] concerns the target T3, Muscarinic acetylcholine receptor M1 (Homo sapiens) (UniProt P11229).
T3 sequence (whole entry): T2 sequence (P11229 whole entry)
In words: Agonist activity at human M1 receptor expressed in HEK293T cells by BRET based Gq protein activation assay relative to carbachol. Type of experiment: cell-based. Particulars: HEK-293T.

Experiment [9] concerns the target T4, Muscarinic acetylcholine receptor M2 (Homo sapiens, UniProt P08172).
T4 sequence (P08172 whole entry): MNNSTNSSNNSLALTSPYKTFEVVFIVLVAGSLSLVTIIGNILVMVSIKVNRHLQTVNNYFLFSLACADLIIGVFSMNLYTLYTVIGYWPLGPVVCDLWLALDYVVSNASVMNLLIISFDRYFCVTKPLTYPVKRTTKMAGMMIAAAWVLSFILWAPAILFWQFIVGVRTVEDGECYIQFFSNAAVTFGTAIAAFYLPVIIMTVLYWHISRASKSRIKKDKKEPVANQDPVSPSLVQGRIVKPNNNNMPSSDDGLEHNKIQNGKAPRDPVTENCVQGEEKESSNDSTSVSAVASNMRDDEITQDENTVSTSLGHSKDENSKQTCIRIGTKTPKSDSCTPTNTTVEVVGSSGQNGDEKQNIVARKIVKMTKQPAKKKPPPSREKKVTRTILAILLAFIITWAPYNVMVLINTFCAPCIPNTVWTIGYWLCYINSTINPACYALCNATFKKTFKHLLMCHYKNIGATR
Nature of the experiment: Displacement of [3H]NMS from human M2 receptor expressed in CHO cells by microplate scintillation counting based radioligand binding assay. In kind it is cell-based. (Displacement assays read how much labelled ligand stays bound in the presence of the test substance.)

The term EC50 denotes the midpoint of the concentration-response curve. A low value points to a more potent agent. The Emax is the greatest response seen or fitted, relative to the assay's reference. What is called Ki is a measure of affinity in units of concentration, obtained from inhibition or displacement. A lower Ki goes with tighter binding. Regarding `CCCCC1CCN(CCCN2C(=O)CCc3ccccc32)CC1`, the Imax turned out to be 55% in experiment [1], 16% in [3], 78% in experiment [4] and 86% in experiment [7]. Further, the concentration giving a half-maximal response (EC50) in [2] was 60.3 nM; in [5] it was 263 nM; in experiment [6], 120 nM. Further, in [8], the Emax came to 57%. The Ki in experiment [9] is 204 nM.
